Laboratory results from BigSolDB 2.1.

CC(=O)Nc1ccc(OC(=O)c2ccccc2OC(C)=O)cc1
solubility (mole fraction)
Settings	278.15 K	283.15 K	288.15 K	293.15 K	298.15 K	303.15 K	308.15 K	313.15 K	318.15 K
in DMF	0.0175	0.0187	0.0201	0.0214	0.0229	0.0244	0.0258	0.0274	0.029
in NMP	0.0222	0.0255	0.0289	0.0326	0.0368	0.041	0.0461	0.0515	0.0571
in ethanol	0.000261	0.00035	0.000454	0.000588	0.000755	0.000947	0.0012	0.00151	0.00191
in isopropanol	0.000141	0.000191	0.000257	0.000346	0.000456	0.000604	0.000781	0.00103	0.00131
in water	5.59e-07	8.56e-07	1.19e-06	1.74e-06	2.45e-06	3.49e-06	4.82e-06	6.74e-06	8.99e-06
